As a reminder, the IC50 is the concentration needed to halve the response being measured. Read a low IC50 as greater potency in that assay. Usually AUC(0-t) stands for the area under the concentration-time curve up to a stated or last time point.

Each structure is given as a SMILES string. Activity calls are given as the source filed them. No cut-off for these calls is given here.

Data set [1] is described as follows: Stability in human liver microsome assessed as parent compound remaining at 1 uM measured after 30 mins in the presence of NADPH by HPLC-MS/MS analysis. It is filed as ADME. To be noted: liver microsomes, read-out: Stability. In general terms: Microsomes from liver hold many membrane-bound enzymes, among them those of drug oxidation.
The target of data set [2] is T1, Stimulator of interferon genes protein (Homo sapiens, UniProt Q86WV6). In words: Activation of STING dependent immune response in wild type human THP1-Dual cells assessed as induction of IFN-beta secretion at 1.28 to 3.2 nM measured after 24 hrs by ELISA. It is filed as cell-based. As to conditions: filed as activator, dose 1.28-3.2 nM.
Another data set has as its system CT26. In words: Antitumor activity against CT26 cells injected in BALB/c syngenic mouse model assessed as reduction in tumor growth at 0.015 to 1.5 mg/kg, iv measured every 2 to 3 days for 17 days. It is filed as functional, organism-based. To be noted: dose 0.015-1.5 mg/kg, time 17.0 day.
Data set [3] deals with T1, Stimulator of interferon genes protein. The data set is described as follows: Activation of STING pathway in human THP1-cells assessed as increase in STAT1 phosphorylation at 2 nM incubated for 6 hrs by Western blotting analysis. The data set is classed as cell-based. To be noted: THP-1, filed as activator. (Immunoblotting shows a protein as a band on a membrane.)
For data set [4] the target is unchanged. The data set is described as follows: Activation of STING pathway in human THP1-cells assessed as increase in IRF3 phosphorylation at 2 nM incubated 6 hrs by Western blotting analysis. It is filed as cell-based. As to conditions: THP-1, filed as activator.
Data set [5] concerns the target T2, Stimulator of interferon genes protein (Mus musculus) (UniProt Q3TBT3).
T2 sequence (whole entry): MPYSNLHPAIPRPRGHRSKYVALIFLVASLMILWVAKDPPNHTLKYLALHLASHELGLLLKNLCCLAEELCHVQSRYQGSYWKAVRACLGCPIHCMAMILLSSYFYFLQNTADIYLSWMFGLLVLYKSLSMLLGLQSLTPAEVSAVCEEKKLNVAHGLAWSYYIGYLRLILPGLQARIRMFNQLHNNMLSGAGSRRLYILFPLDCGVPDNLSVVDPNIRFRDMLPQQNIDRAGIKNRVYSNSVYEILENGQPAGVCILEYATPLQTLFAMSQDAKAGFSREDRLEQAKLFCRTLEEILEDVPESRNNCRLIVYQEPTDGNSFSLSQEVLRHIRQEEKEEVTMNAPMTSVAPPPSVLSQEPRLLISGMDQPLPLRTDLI
In words: Activation of STING mediated immune response in mouse RAW264.7 cells assessed as induction of IFNbeta secretion measured after 24 hrs by ELISA. It is filed as cell-based. As to conditions: filed as activator, dose 0.32-5000 nM, DDE = dose-dependent effect. On the technique in general: In an ELISA, binding on a coated surface is turned into a signal by an enzyme label.

A short description of data set [6]: Clearance in BALB/c mouse at 3 mg/kg, iv by LC-MS/MS analysis. The data set is classed as ADME, organism-based. To be noted: in vivo, iv, 3 mg/kg.
Another data set concerns the target Cytochrome P450 2C9 (Homo sapiens, UniProt P11712). The data set is described as follows: Inhibition of CYP2C9 in human liver microsomes tolbutamide as cocktail probe substrate preincubated for 5 mins followed by NADPH addition and measured after 30 mins by HPLC-MS/MS analysis. The data set is classed as ADME, Microsome.
Data set [7] relates to THP-1. In words: […] of IFNB in human THP-1 cells at 100 nM measured after 18 hrs by RT-PCR analysis. The data set is classed as functional, cell-based.
A short description of data set [8]: Stability in mouse liver microsome assessed as parent compound remaining at 1 uM measured after 30 mins in the presence of NADPH by HPLC-MS/MS analysis. It is filed as ADME. As to conditions: liver microsomes, read-out: Stability.
Data set [9] can be described thus: Solubility of the compound in DMSO at 50 to 100 uM incubated for 72 hrs. To be noted: dose 50-100 µM. The data set is classed as physicochemical.
A short description of data set [10]: Stability in mouse plasma assessed as parent compound remaining at 5 uM measured after 4 hrs by HPLC-MS/MS analysis. The data set is classed as ADME, cell-free. As to conditions: read-out: Stability.
The target of data set [11] is T1, Stimulator of interferon genes protein. The data set is described as follows: Activation of STING mediated immune response in human THP-1 cells assessed as induction of IP-10 secretion measured after 24 hrs by ELISA. The data set is classed as cell-based. As to conditions: filed as activator, dose 0.41-100 nM, DDE = dose-dependent effect.
For the next data set, the target named is Cytochrome P450 2C19 (Homo sapiens, UniProt P33261). The data set is described as follows: Inhibition of CYP2C19 in human liver microsomes using S-mephenytoin as cocktail probe substrate preincubated for 5 mins followed by NADPH addition and measured after 30 mins by HPLC-MS/MS analysis. The data set is classed as ADME, Microsome.
The subject of data set [12] is THP-1. In words: Upregulation of IFNB in human THP-1 cells at 100 nM measured after 6 hrs by RT-PCR analysis. The data set is classed as functional, cell-based.
Data set [13] addresses T1, Stimulator of interferon genes protein. In words: Activation of STING pathway in human THP-1 cells assessed as increase in TBK1 phosphorylation at 2 nM incubated for 6 hrs by Western blotting analysis. It is filed as cell-based. As to conditions: filed as activator.
In data set [14] the test system is THP-1. The data set is described as follows: Upregulation of CXCL10 in human THP-1 cells at 100 nM measured after 6 to 18 hrs by RT-PCR analysis. As to conditions: time 6-18 hrs. It is filed as functional, cell-based.
The target in data set [15] is T1, Stimulator of interferon genes protein. The data set is described as follows: Binding affinity to STING in human THP-1 cells assessed as thermal stabilization at 48 to 55 degC at 100 nM incubated for 4 hrs by western blotting based CETSA assay. The data set is classed as cell-based. To be noted: filed as activator.
Data set [16] in a line: Terminal half life in BALB/c mouse at 3 mg/kg, iv by LC-MS/MS analysis. As to conditions: in vivo, read-out: beta t1/2 (converted). The data set is classed as ADME, organism-based.
Data set [17] concerns the target T1, Stimulator of interferon genes protein. As to conditions: THP1-Dual, filed as activator, dose 50.0 µM, time 24.0 hrs.
Data set [18] is described as follows: AUClast in BALB/c mouse at 3 mg/kg, iv by LC-MS/MS analysis. To be noted: in vivo. The data set is classed as ADME, organism-based. The arrangement: time 0 - last, dose 3 mg/kg, route iv.
The next data set concerns Mus musculus. The data set is described as follows: Upregulation of IL-6 in BALB/c mouse serum at 1.5 mg/kg, iv measured after 4 hrs by ELISA. It is filed as functional, organism-based.
In data set [19] the target is T2, Stimulator of interferon genes protein (Mus musculus). In words: Activation of STING mediated immune response in mouse RAW264.7 cells assessed as induction of IP-10 secretion measured after 24 hrs by ELISA. The data set is classed as cell-based. As to conditions: filed as activator, dose 0.32-5000 nM, DDE = dose-dependent effect.

T1 sequence (Q86WV6 whole entry): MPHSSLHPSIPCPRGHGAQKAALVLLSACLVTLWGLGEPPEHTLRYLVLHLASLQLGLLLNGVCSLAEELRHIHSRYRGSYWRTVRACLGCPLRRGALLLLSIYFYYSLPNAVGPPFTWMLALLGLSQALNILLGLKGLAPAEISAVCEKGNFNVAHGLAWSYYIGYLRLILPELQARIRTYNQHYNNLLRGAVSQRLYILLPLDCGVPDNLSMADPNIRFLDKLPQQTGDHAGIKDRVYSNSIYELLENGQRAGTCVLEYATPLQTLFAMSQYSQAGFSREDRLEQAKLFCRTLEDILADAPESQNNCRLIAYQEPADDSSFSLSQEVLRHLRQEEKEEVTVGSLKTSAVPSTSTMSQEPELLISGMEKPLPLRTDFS
Chain of Cytochrome P450 2C19 (P33261 whole entry): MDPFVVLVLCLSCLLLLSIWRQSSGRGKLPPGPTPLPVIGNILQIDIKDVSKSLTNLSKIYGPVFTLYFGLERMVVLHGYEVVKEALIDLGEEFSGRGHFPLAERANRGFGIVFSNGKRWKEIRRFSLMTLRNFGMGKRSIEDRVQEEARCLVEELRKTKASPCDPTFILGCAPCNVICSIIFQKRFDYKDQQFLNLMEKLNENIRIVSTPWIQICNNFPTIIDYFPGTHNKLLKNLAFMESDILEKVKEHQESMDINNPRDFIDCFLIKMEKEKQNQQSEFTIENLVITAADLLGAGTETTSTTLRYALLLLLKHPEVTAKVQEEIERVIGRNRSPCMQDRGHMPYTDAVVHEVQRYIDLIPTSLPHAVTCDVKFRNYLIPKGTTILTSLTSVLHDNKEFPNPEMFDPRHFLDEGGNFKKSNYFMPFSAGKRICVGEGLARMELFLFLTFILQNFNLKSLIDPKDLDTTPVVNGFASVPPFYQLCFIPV
Chain of Cytochrome P450 2C9 (P11712 whole entry): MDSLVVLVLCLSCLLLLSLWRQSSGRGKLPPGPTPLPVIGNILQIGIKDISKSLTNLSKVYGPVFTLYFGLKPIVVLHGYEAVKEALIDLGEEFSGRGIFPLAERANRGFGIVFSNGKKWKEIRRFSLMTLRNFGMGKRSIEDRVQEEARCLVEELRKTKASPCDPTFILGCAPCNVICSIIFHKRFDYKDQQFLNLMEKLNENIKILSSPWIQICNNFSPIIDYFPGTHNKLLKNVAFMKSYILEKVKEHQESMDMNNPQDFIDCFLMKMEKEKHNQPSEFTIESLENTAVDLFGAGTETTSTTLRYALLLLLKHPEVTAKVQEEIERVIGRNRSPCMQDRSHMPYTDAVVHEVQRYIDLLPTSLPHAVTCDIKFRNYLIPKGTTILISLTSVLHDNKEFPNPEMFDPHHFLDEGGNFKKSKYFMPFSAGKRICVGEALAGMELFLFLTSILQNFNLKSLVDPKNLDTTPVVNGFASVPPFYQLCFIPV

Turning to `CCn1nc(C)cc1C(=O)Nc1nc2cc(C(N)=O)cc(OC)c2n1C/C=C/Cn1c(NC(=O)c2cc(C)nn2CC)nc2cc(C(N)=O)cc(OCCCNC(=O)OC(C)(C)C)c21`, the remaining at 0.5 h, 1 µM in data set [1] is 11.2%; in data set [8], 38.7%. Moreover, the result (in data set [2]; in the data set with CT26; in [3]; in data set [4]; with THP-1 [7]; in the data set with THP-1 [12]) was Active. Also, the result (in data set [13]; in the data set with THP-1 [14]; in [15]; in the data set with Mus musculus) was Active. Also, the Activity result in data set [5], in data set [11] and in data set [19] was “Dde” each time. The molecule also yielded a CL in data set [6] of 35.3 mL/min/kg. In addition, the half-maximal inhibitory concentration (IC50) against Cytochrome P450 2C9 and on Cytochrome P450 2C19 was greater than 100 µM throughout. The solubility result in [9] is reported as “Soluble”. In addition, in [10], the remaining at 4 h, 5 µM is greater than 99%. Moreover, in data set [16], the half-life is 10.5 h. In addition, the RLU in data set [17] is 102. The molecule further registered an AUC(0-t) in data set [18] of 4200 ng·h/mL.

(Values after ChEMBL document CHEMBL5154810, “Development of Potent Immune Modulators Targeting Stimulator of Interferon Genes Receptor” (J Med Chem, 2022).)
